From PubChem BioAssay (NCI)
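Each compound was tested at five concentrations against cells in 96-well plates for 48 hours. GI50: concentration for 50% inhibition of growth. TGI denotes the concentration required for complete inhibition of growth.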

Columns and labels:
Experiment in all cases: NCI tumour cell line growth inhibition, 48 h
786-0 renal = tested on: 786-0 renal
A498 renal = tested on: A498 renal
A549 NSCLC = tested on: A549 NSCLC
ACHN renal = tested on: ACHN renal
BT-549 breast = tested on: BT-549 breast
CAKI-1 renal = tested on: CAKI-1 renal
CCRF-CEM leukemia = tested on: CCRF-CEM leukemia
COLO 205 colon = tested on: COLO 205 colon
DU-145 prostate = tested on: DU-145 prostate
EKVX NSCLC = tested on: EKVX NSCLC
HCC-2998 colon = tested on: HCC-2998 colon
HCT-116 colon = tested on: HCT-116 colon
HCT-15 colon = tested on: HCT-15 colon
HL-60(TB) leukemia = tested on: HL-60(TB) leukemia
HOP-62 NSCLC = tested on: HOP-62 NSCLC
HOP-92 NSCLC = tested on: HOP-92 NSCLC
HS 578T breast = tested on: HS 578T breast
HT29 colon = tested on: HT29 colon
IGROV1 ovarian = tested on: IGROV1 ovarian
K-562 leukemia = tested on: K-562 leukemia
KM12 colon = tested on: KM12 colon
LOX IMVI melanoma = tested on: LOX IMVI melanoma
M14 melanoma = tested on: M14 melanoma
MALME-3M melanoma = tested on: MALME-3M melanoma
MCF7 breast = tested on: MCF7 breast
MDA-MB-231 breast = tested on: MDA-MB-231 breast
MDA-MB-435 = tested on: MDA-MB-435
MDA-MB-468 breast = tested on: MDA-MB-468 breast
MOLT-4 leukemia = tested on: MOLT-4 leukemia

O=C(c1ccc(O)cc1)C1[C@H](c2ccc(Br)cc2)[C@@H](c2ccccc2)NC12C(=O)Nc1ccccc12 (stereo partly drawn)
GI50 (786-0 renal): 5.83 µM | TGI (786-0 renal): 11.2 µM | GI50 (A498 renal): 5.83 µM | TGI (A498 renal): 11.3 µM | GI50 (A549 NSCLC): 4.84 µM | TGI (A549 NSCLC): 10.2 µM | GI50 (ACHN renal): 5.69 µM | TGI (ACHN renal): 10.8 µM | GI50 (BT-549 breast): 6.02 µM | TGI (BT-549 breast): 11.4 µM | GI50 (CAKI-1 renal): 4.67 µM | TGI (CAKI-1 renal): 9.8 µM | GI50 (CCRF-CEM leukemia): 7.07 µM | TGI (CCRF-CEM leukemia): 16.1 µM | GI50 (COLO 205 colon): 6.88 µM | TGI (COLO 205 colon): 14.1 µM | GI50 (DU-145 prostate): 6.85 µM | TGI (DU-145 prostate): 12.9 µM | GI50 (EKVX NSCLC): 5.92 µM | TGI (EKVX NSCLC): 14 µM | GI50 (HCC-2998 colon): 5.87 µM | TGI (HCC-2998 colon): 11.4 µM | GI50 (HCT-116 colon): 5.51 µM | TGI (HCT-116 colon): 10.8 µM | GI50 (HCT-15 colon): 6.17 µM | TGI (HCT-15 colon): 13 µM | GI50 (HL-60(TB) leukemia): 7.46 µM | TGI (HL-60(TB) leukemia): 18.9 µM | GI50 (HOP-62 NSCLC): 5.88 µM | TGI (HOP-62 NSCLC): 11.5 µM | GI50 (HOP-92 NSCLC): 5.36 µM | TGI (HOP-92 NSCLC): 10.9 µM | GI50 (HS 578T breast): 6.63 µM | TGI (HS 578T breast): 15.9 µM | GI50 (HT29 colon): 5.87 µM | TGI (HT29 colon): 12 µM | GI50 (IGROV1 ovarian): 5.21 µM | TGI (IGROV1 ovarian): 10.4 µM | GI50 (K-562 leukemia): 8.24 µM | TGI (K-562 leukemia): 21.8 µM | GI50 (KM12 colon): 6.31 µM | TGI (KM12 colon): 12.6 µM | GI50 (LOX IMVI melanoma): 4.93 µM | TGI (LOX IMVI melanoma): 10.6 µM | GI50 (M14 melanoma): 5.63 µM | TGI (M14 melanoma): 11.3 µM | GI50 (MALME-3M melanoma): 5.75 µM | TGI (MALME-3M melanoma): 10.9 µM | GI50 (MCF7 breast): 6.41 µM | TGI (MCF7 breast): 15.4 µM | GI50 (MDA-MB-231 breast): 4.93 µM | TGI (MDA-MB-231 breast): 9.87 µM | GI50 (MDA-MB-435): 6.53 µM | TGI (MDA-MB-435): 12.3 µM | GI50 (MDA-MB-468 breast): 6.1 µM | TGI (MDA-MB-468 breast): 12.2 µM | GI50 (MOLT-4 leukemia): 3.99 µM | TGI (MOLT-4 leukemia): 13.4 µM
